Laboratory results published in US12077503B2, “Substituted cyclic amides and their use as herbicides” (FMC CORPORATION, priority 2015, dated 2024).

Assays:
Type in all cases: in vivo
Kochia (Kochia scoparia) [1] = experiment: Test A preemergence; settings: for Plant response rating, Kochia: 125 g ai/ha
Summary of the method: (§1)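 Greenhouse, ~10 d after spray; visual injury vs untreated controls, 0 = no effect, 100 = complete control. Preemergence: directed soil spray over planted seeds. Postemergence: plants 2–10 cm, 1–2 leaf stage. Loam/sand blend. Compound in non-phytotoxic solvent with surfactant.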

[2] = test system: barnyardgrass (Echinochloa crus-galli); experiment: Test A preemergence; settings: for Plant response rating, Barnyardgrass: 125 g ai/ha
Summary of the method: as §1

[3] = test system: giant foxtail (Setaria faberii); experiment: Test A preemergence; settings: for Plant response rating, Foxtail, Giant: 125 g ai/ha
Summary of the method: as §1

[4] = test system: pigweed (Amaranthus retroflexus); experiment: Test A preemergence; settings: for Plant response rating, Pigweed: 125 g ai/ha
[5] = test system: ragweed (common ragweed, Ambrosia elatior); experiment: Test A preemergence; settings: for Plant response rating, Ragweed: 125 g ai/ha
Summary of the method: as §1

[6] = test system: ryegrass, Italian (Italian ryegrass, Lolium multiflorum); experiment: Test A preemergence; settings: for Plant response rating, Ryegrass, Italian: 125 g ai/ha
Summary of the method: as §1

[7] = test system: Galium (catchweed bedstraw, Galium aparine); experiment: Test A postemergence
Summary of the method: as §1

Kochia (Kochia scoparia) [8] = experiment: Test A postemergence
Summary of the method: as §1

[9] = test system: barnyardgrass (Echinochloa crus-galli); experiment: Test A postemergence
Summary of the method: as §1

[10] = test system: blackgrass (Alopecurus myosuroides); experiment: Test A postemergence
Summary of the method: as §1

corn (Zea mays) = experiment: Test A postemergence
Summary of the method: as §1

[11] = test system: giant foxtail (Setaria faberii); experiment: Test A postemergence
Summary of the method: as §1

[12] = test system: pigweed (Amaranthus retroflexus); experiment: Test A postemergence
Summary of the method: as §1

[13] = test system: ragweed (common ragweed, Ambrosia elatior); experiment: Test A postemergence
Summary of the method: as §1

[14] = test system: ryegrass, Italian (Italian ryegrass, Lolium multiflorum); experiment: Test A postemergence
Summary of the method: as §1

[15] = test system: wheat (Triticum aestivum); experiment: Test A postemergence
Summary of the method: as §1

[16] = test system: barnyardgrass (Echinochloa crus-galli); experiment: Test B flooded paddy test; settings: Flood, 250 g ai/ha; 0 to 100 scale where 0 is no effect and 100 is complete control; 13 to 15 d
Summary of the method: (§2)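 Plants at 2-leaf stage flooded to 3 cm above soil, with compounds applied directly to paddy water and that depth maintained. Plants kept in greenhouse 13–15 d. Visual rating versus controls on a 0 (no effect) to 100 (complete control) scale.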

[17] = test system: ducksalad (Heteranthera limosa); experiment: Test B flooded paddy test; settings: Flood, 250 g ai/ha; 0 to 100 scale where 0 is no effect and 100 is complete control; 13 to 15 d
Summary of the method: as §2

rice (Oryra sativa) = experiment: Test B flooded paddy test; settings: Flood, 250 g ai/ha; 0 to 100 scale where 0 is no effect and 100 is complete control; 13 to 15 d
Summary of the method: as §2

[18] = test system: sedge, umbrella (small-flower umbrella sedge, Cyperus difformis); experiment: Test B flooded paddy test; settings: Flood, 250 g ai/ha; 0 to 100 scale where 0 is no effect and 100 is complete control; 13 to 15 d
Summary of the method: as §2

[19] = preemergence, 0 to 100 scale (0 no effect, 100 complete control)
[20] = Preemergence, 500 g ai/ha, 0 is no effect, 100 is complete control
[21] = 500 g ai/ha, postemergence, 0 to 100 scale, 0 no effect, 100 complete control
[22] = Postemergence, 125 g ai/ha, visual injury, 0 to 100 scale (0 no effect, 100 complete control), approx. 10 d
[23] = Preemergence, visual injury after approximately 10 d, 0 to 100 scale where 0 is no effect and 100 is complete control
[24] = Preemergence, 500 g ai/ha, visual injury approx. 10 d
[25] = 125 g ai/ha, postemergence, visual rating after approx. 10 d, 0 to 100 scale (0 no effect, 100 complete control)
[26] = Postemergence, 500 g ai/ha, 0 to 100 scale where 0 is no effect and 100 is complete control

## Cc1ccc(C2CNC(=O)C2C(=O)Nc2ccc(F)cc2F)cc1F (racemic) [Compound 370]
Kochia (Kochia scoparia) [1]; [19]
  Plant response rating, Kochia: 0
Kochia (Kochia scoparia) [1]; [20]
  Kochia plant response rating (0 to 100 scale): 30
[2]; [19]
  Plant response rating, Barnyardgrass: 90
[2]; [20]
  Barnyardgrass plant response rating (0 to 100 scale): 90
[3]; [19]
  Plant response rating, Foxtail, Giant: 90
[3]; [20]
  Foxtail, Giant plant response rating (0 to 100 scale): 90
[4]; [19]
  Plant response rating, Pigweed: 0
[4]; [20]
  Pigweed plant response rating (0 to 100 scale): 0
[5]; [19]
  Plant response rating, Ragweed: 0
[5]; [20]
  Ragweed plant response rating (0 to 100 scale): 20
[6]; [19]
  Plant response rating, Ryegrass, Italian: 0
[6]; [20]
  Ryegrass, Italian plant response rating (0 to 100 scale): 0
[7]; [21]
  Plant response rating, Galium: 60
[7]; [22]
  Plant response rating, Galium: 20
Kochia (Kochia scoparia) [8]; [21]
  Plant response rating, Kochia: 0
Kochia (Kochia scoparia) [8]; [22]
  Plant response rating, Kochia: 0
[9]; [21]
  Plant response rating, Barnyardgrass: 90
[9]; [22]
  Plant response rating, Barnyardgrass: 80
[10]; [21]
  Plant response rating, Blackgrass: 40
[10]; [22]
  Plant response rating, Blackgrass: 0
Corn (Zea mays); [21]
  Plant response rating, Corn: 20
Corn (Zea mays); [22]
  Plant response rating, Corn: 0
[11]; [21]
  Plant response rating, Foxtail, Giant: 70
[11]; [22]
  Plant response rating, Foxtail, Giant: 40
[12]; [21]
  Plant response rating, Pigweed: 0
[12]; [22]
  Plant response rating, Pigweed: 0
[13]; [21]
  Plant response rating, Ragweed: 50
[13]; [22]
  Plant response rating, Ragweed: 0
[14]; [21]
  Plant response rating, Ryegrass, Italian: 20
[14]; [22]
  Plant response rating, Ryegrass, Italian: 0
[15]; [21]
  Plant response rating, Wheat: 20
[15]; [22]
  Plant response rating, Wheat: 0
[16]
  Plant response rating, Barnyardgrass: 60
[17]
  Plant response rating, Ducksalad: 100
Rice (Oryra sativa)
  Plant response rating, Rice: 0
[18]
  Plant response rating, Sedge, Umbrella: 30

## O=C1NCC(c2cc(C(F)(F)F)cc(C(F)(F)F)c2)C1C(=O)Nc1ccccc1F (centres unmarked) [Compound 587]
Kochia (Kochia scoparia) [1]; [23]
  Plant response rating, Kochia: 0
Kochia (Kochia scoparia) [1]; [24]
  Kochia plant response rating (0 to 100 scale, 0 is no effect, 100 is complete control): 0
[2]; [23]
  Plant response rating, Barnyardgrass: 90
[2]; [24]
  Barnyardgrass plant response rating (0 to 100 scale, 0 is no effect, 100 is complete control): 90
[3]; [23]
  Plant response rating, Foxtail, Giant: 90
[3]; [24]
  Foxtail, Giant plant response rating (0 to 100 scale, 0 is no effect, 100 is complete control): 90
[4]; [23]
  Plant response rating, Pigweed: 0
[5]; [23]
  Plant response rating, Ragweed: 0
[5]; [24]
  Ragweed plant response rating (0 to 100 scale, 0 is no effect, 100 is complete control): 0
[6]; [23]
  Plant response rating, Ryegrass, Italian: 20
[6]; [24]
  Ryegrass, Italian plant response rating (0 to 100 scale, 0 is no effect, 100 is complete control): 60
[7]; [25]
  Plant response rating, Galium: 0
[7]; [26]
  Plant response rating, Galium: 0
Kochia (Kochia scoparia) [8]; [25]
  Plant response rating, Kochia: 0
Kochia (Kochia scoparia) [8]; [26]
  Plant response rating, Kochia: 20
[9]; [25]
  Plant response rating, Barnyardgrass: 80
[9]; [26]
  Plant response rating, Barnyardgrass: 90
[10]; [25]
  Plant response rating, Blackgrass: 20
[10]; [26]
  Plant response rating, Blackgrass: 60
Corn (Zea mays); [25]
  Plant response rating, Corn: 40
Corn (Zea mays); [26]
  Plant response rating, Corn: 70
[11]; [25]
  Plant response rating, Foxtail, Giant: 80
[11]; [26]
  Plant response rating, Foxtail, Giant: 90
[12]; [25]
  Plant response rating, Pigweed: 0
[12]; [26]
  Plant response rating, Pigweed: 0
[13]; [25]
  Plant response rating, Ragweed: 0
[13]; [26]
  Plant response rating, Ragweed: 0
[14]; [25]
  Plant response rating, Ryegrass, Italian: 0
[14]; [26]
  Plant response rating, Ryegrass, Italian: 30
[15]; [25]
  Plant response rating, Wheat: 40
[15]; [26]
  Plant response rating, Wheat: 60
[16]
  Plant response rating, Barnyardgrass: 55
[17]
  Plant response rating, Ducksalad: 75
Rice (Oryra sativa)
  Plant response rating, Rice: 20
[18]
  Plant response rating, Sedge, Umbrella: 0
